According to the supplement of paper PMC13380429:

Key:
Details in all cases: 72 h
[1] = test system: U2OS; assay: relative viability EC50 (midpoint between 100% and the lowest measured viability); higher = less toxic
[2] = test system: Vero E6; assay: as above
[3] = test system: Caco-2; assay: as above
[4] = test system: Calu-3; assay: as above
[5] = test system: HepG2; assay: as above
[6] = test system: U2OS; assay: cell viability relative to DMSO; higher = less toxic
[7] = test system: Vero E6; assay: as above
[8] = test system: Caco-2; assay: as above
[9] = test system: Calu-3; assay: as above
[10] = test system: HepG2; assay: as above
[11] = test system: U2OS; assay: drug sensitivity score (DSS) for viability; higher = more toxic; extreme values may be limits of the assay
[12] = test system: Vero E6; assay: as above
[13] = test system: Caco-2; assay: as above
[14] = test system: Calu-3; assay: as above
[15] = test system: HepG2; assay: as above

SMILES | relative viability EC50 [1] | relative viability EC50 [2] | relative viability EC50 [3] | relative viability EC50 [4] | relative viability EC50 [5] | cell viability ([6]; 1 nM) | cell viability ([6]; 10 nM) | cell viability ([6]; 100 nM) | cell viability ([6]; 1000 nM) | cell viability ([6]; 10000 nM) | cell viability ([7]; 1 nM) | cell viability ([7]; 10 nM) | cell viability ([7]; 100 nM) | cell viability ([7]; 1000 nM) | cell viability ([7]; 10000 nM) | cell viability ([8]; 1 nM) | cell viability ([8]; 10 nM) | cell viability ([8]; 100 nM) | cell viability ([8]; 1000 nM) | cell viability ([8]; 10000 nM) | cell viability ([9]; 1 nM) | cell viability ([9]; 10 nM) | cell viability ([9]; 100 nM) | cell viability ([9]; 1000 nM) | cell viability ([9]; 10000 nM) | cell viability ([10]; 1 nM) | cell viability ([10]; 10 nM) | cell viability ([10]; 100 nM) | cell viability ([10]; 1000 nM) | cell viability ([10]; 10000 nM) | drug sensitivity score [11] | drug sensitivity score [12] | drug sensitivity score [13] | drug sensitivity score [14] | drug sensitivity score [15]
COc1ccc2ccc(=O)oc2c1CC=C(C)C [osthol] | > 10 µM | > 10 µM | > 10 µM | > 10 µM | > 10 µM | 92.9% | 100% | 93.3% | 99% | 102% | 95.1% | 94.4% | 95.9% | 93.2% | 99.2% | 94.3% | 95.1% | 94% | 100% | 101% | 86.6% | 98.2% | 104% | 114% | 108% | 96.5% | 105% | 98.8% | 106% | 100% | 0 | 0 | 0 | 0 | 0
O=C(O)CCc1cc(C(=O)c2ccc(OC3CCCC3)cc2O)ccc1OCc1ccc2c(O)noc2c1 [T-5224] | > 10 µM | > 10 µM | > 10 µM | > 10 µM | > 10 µM | 97.6% | 99.2% | 95.9% | 99.9% | 96.4% | 93.9% | 101% | 97.2% | 102% | 94.9% | 106% | 99.2% | 101% | 93.6% | 94% | 97.3% | 106% | 92.3% | 93.9% | 100% | 97.9% | 93% | 105% | 102% | 96.4% | 0 | 0 | 0 | 0 | 0
CC(C)(C)NC[C@H](O)c1ccc(O)cc1Cl [meluadrine] | > 10 µM | > 10 µM | > 10 µM | > 10 µM | > 10 µM | 99.3% | 101% | 96.4% | 100% | 96.4% | 109% | 102% | 102% | 99.9% | 104% | 97.9% | 97.6% | 93.9% | 97.6% | 90.7% | 92.8% | 104% | 98.3% | 104% | 104% | 105% | 106% | 103% | 95% | 105% | 0 | 0 | 0 | 0 | 0
CC(C)Cn1cnc2c1c(=O)n(C)c(=O)n2C [isbufylline] | > 10 µM | > 10 µM | > 10 µM | > 10 µM | > 10 µM | 98.1% | 96.5% | 98.1% | 97.3% | 93.3% | 92.9% | 95.9% | 91.3% | 104% | 106% | 93.7% | 96.8% | 112% | 115% | 112% | 104% | 88.5% | 101% | 102% | 98.4% | 100% | 99% | 91.7% | 93.7% | 105% | 0 | 0 | 0 | 0 | 0
COc1cc(C)[nH]c(=O)c1CNC(=O)c1c(C)n([C@H](C)C2CCOCC2)c2ccccc12 [CPI-360] | > 10 µM | > 10 µM | > 10 µM | > 10 µM | > 10 µM | 99.7% | 101% | 100% | 102% | 101% | 108% | 102% | 108% | 96.3% | 104% | 107% | 106% | 99.2% | 107% | 95.7% | 101% | 113% | 101% | 105% | 95.7% | 107% | 97.6% | 96.7% | 90.7% | 92.2% | 0 | 0 | 0 | 0 | 0
CCCCCNC(=N)N/N=C/c1c[nH]c2ccc(OC)cc12 [tegaserod] | > 10 µM | > 10 µM | > 10 µM | > 10 µM | > 10 µM | 94.1% | 99.3% | 94.6% | 97.7% | 95.9% | 100% | 94.4% | 97.8% | 90.7% | 92.8% | 83.7% | 89.8% | 108% | 84.7% | 96.9% | 105% | 96.3% | 97.9% | 91.4% | 92.9% | 94.6% | 94% | 109% | 105% | 114% | 0 | 0 | 0 | 0 | 0
NC(N)=Nc1nc(CSCCN/C=N/S(=O)(=O)c2ccc(Br)cc2)cs1 [ebrotidine] | > 10 µM | > 10 µM | > 10 µM | > 10 µM | > 10 µM | 100% | 103% | 98.6% | 106% | 98.9% | 88.7% | 91.8% | 97.7% | 90.6% | 105% | 97.8% | 102% | 95% | 99.5% | 99.9% | 96% | 101% | 94.8% | 101% | 93.3% | 98.2% | 97.6% | 112% | 93.4% | 86.5% | 0 | 0 | 0 | 0 | 0.5
CN[C@@H](C)CCC=C(C)C [isometheptene-mucate] | > 10 µM | > 10 µM | > 10 µM | > 10 µM | > 10 µM | 104% | 96.5% | 98.7% | 103% | 105% | 91.1% | 96.2% | 92.5% | 97% | 104% | 93.4% | 102% | 93.7% | 93.9% | 106% | 94% | 100% | 98.1% | 100% | 108% | 96.1% | 101% | 107% | 94.5% | 95% | 0 | 0 | 0 | 0 | 0
Cc1ccc(C23CNCC2C3)cc1 (stereo not given) [bicifadine] | > 10 µM | > 10 µM | > 10 µM | > 10 µM | > 10 µM | 96.8% | 98.9% | 103% | 102% | 96.4% | 97.7% | 93.8% | 98.8% | 96.3% | 99.8% | 103% | 99% | 106% | 110% | 97.4% | 115% | 96% | 104% | 105% | 103% | 99.7% | 88.8% | 100% | 96.3% | 94.7% | 0 | 0 | 0 | 0 | 0
O=c1c(-c2ccc(O)cc2)coc2c([C@@H]3O[C@H](CO)[C@@H](O)[C@H](O)[C@H]3O)c(O)ccc12 [kakonein] | > 10 µM | > 10 µM | > 10 µM | > 10 µM | > 10 µM | 99.2% | 95.1% | 99.3% | 95.2% | 97.9% | 98% | 103% | 99.1% | 95.3% | 91.8% | 122% | 104% | 108% | 106% | 96.3% | 104% | 99.3% | 111% | 102% | 95.5% | 95.7% | 97.7% | 84.6% | 99.6% | 93.5% | 0 | 0 | 0 | 0 | 0
CCOC(=O)[C@@H](C)Oc1ccc(Oc2nc3ccc(Cl)cc3o2)cc1 [fenoxaprop-p-ethyl] | > 10 µM | > 10 µM | > 10 µM | > 10 µM | > 10 µM | 101% | 97.9% | 97.3% | 101% | 99.8% | 96.8% | 92.2% | 93.8% | 101% | 115% | 102% | 100% | 103% | 101% | 97.2% | 105% | 99% | 113% | 110% | 112% | 97.9% | 102% | 103% | 101% | 108% | 0 | 0 | 0 | 0 | 0
C[C@H]1O[C@@H](O[C@H]2CC[C@@]3(C)[C@H](CC[C@@H]4[C@@H]3C[C@@H](O)[C@]3(C)[C@@H](C5=CC(=O)OC5)CC[C@]43O)C2)C[C@H](O)[C@@H]1O[C@H]1C[C@H](O)[C@H](O[C@H]2C[C@H](O)[C@H](O[C@@H]3O[C@H](CO)[C@@H](O)[C@H](O)[C@H]3O)[C@@H](C)O2)[C@@H](C)O1 [deslanoside] | 0.258 µM | 0.0401 µM | 0.131 µM | 0.356 µM | 0.266 µM | 101% | 98.9% | 93.2% | 5.9% | 10.9% | 96.7% | 94.3% | 14.8% | 1.5% | 1% | 98.3% | 95% | 69.8% | 18.6% | 20% | 102% | 97.2% | 94.2% | 28.1% | 19.1% | 89.4% | 92.9% | 76.2% | 25.5% | 6.7% | 18 | 28.7 | 18.5 | 14 | 16.7
CCCCOc1cc(CC2CNC(=O)N2)ccc1OC (stereo not given) [Ro-20-1724] | > 10 µM | > 10 µM | > 10 µM | > 10 µM | > 10 µM | 96.3% | 102% | 95.2% | 107% | 102% | 95.4% | 94.8% | 101% | 95.1% | 99.1% | 97.3% | 96.8% | 102% | 103% | 110% | 97.1% | 105% | 104% | 108% | 96.8% | 101% | 91.6% | 105% | 91.1% | 89.5% | 0 | 0 | 0 | 0 | 0.1
O=C(O)C(=O)c1cn(Cc2ccccc2)c2ccc(-c3ccc(OC(F)(F)F)cc3)cc12 [tiplaxtinin] | > 10 µM | > 10 µM | > 10 µM | > 10 µM | > 10 µM | 94.5% | 92.1% | 104% | 94.7% | 96.5% | 108% | 106% | 96.6% | 98.2% | 81.3% | 104% | 106% | 102% | 92.2% | 92.8% | 113% | 95.5% | 96.8% | 98.6% | 104% | 104% | 98.8% | 102% | 93.8% | 93.1% | 0 | 0.7 | 0 | 0 | 0
